Consider one substance from patent publication US10413612B2, “Method of treating cancer with a biomaterial and a toll-like receptor agonist” (Dana-Farber Cancer Institute, Inc., priority 2016, dated 2019).

Data set [1] in a line: In vitro release study of payloads from hydrogel. The data set is classed as physicochemical. The following applies: sink conditions, PBS or media. As for the experimental part:
To determine the release kinetics of each payload from the hydrogel, a hydrogel loaded with fluorescently tagged anti-PD-1, fluorescently tagged IL-15sa, lenalidomide, celecoxib, fluorescently tagged 2′3′-cGAMP, or R848 was immersed in 3 mL pH 7.4 phosphate buffered saline (PBS). At each time point, 1 mL of media was taken out and the same amount of fresh buffer was added back. The amount of payload that had been released was then measured using a fluorescence plate reader or via HPLC.
Hydrogels were prepared according to the general procedure in Example 1. They contained either one or all of the payloads indicated. Fluorescent dyes were conjugated to the proteins to facilitate the measurement of protein release kinetics. The hydrogels were immersed in 3 mL of buffer (either PBS only, PBS with Tween80 (0.2% v/v), or RPMI with 10% FBS) and incubated at 37° C. with stirring.
At the indicated sampling time points, 1 mL of buffer was recovered for measurement and was replaced by an equivalent volume of fresh buffer. The aliquots were measured using a fluorescence plate reader to determine protein concentration. Aliquots were also assessed by HPLC to determine small molecule concentration.

Data set [2] has as its system 4T1-Luc2 syngeneic breast cancer cells. The following applies: hydrogel with IL-15sa and anti-PD-1 (devices 1, 14-16). As for the experimental part: Seven-week-old female Balb/c mice were inoculated orthotopically with 100,000 4T1-Luc2 syngeneic breast cancer cells (into the fourth mammary fat pad). After 10 days, the mice were anesthetized, tumors were surgically resected, and compositions were placed in the resection site. […] The order of surgeries avoided systematic error by dividing up the groups. Standard follow-up care (wound clips, analgesic) was provided.
For the metastatic breast cancer model, 10^5 4T1-Luc2 or 4T1 cells (in 30 μl DPBS) were inoculated orthotopically into the fourth mammary pad of mice to generate a local tumor mass. Cells were injected without any incision to expose the fat pad. Mice were randomly assigned to treatment groups, and surgery was performed 10 days after tumor inoculation. For the metastatic melanoma and lung cancer models, 10^6B16-BL6 or 5×10^5 LLC cells (in 100 μl DPBS) were inoculated subcutaneously in mice to generate a local tumor mass. Mice were randomly assigned to treatment groups, and surgery was performed when tumor volumes reached ˜600 mm^3. While mice were kept under anesthesia at 2% isoflurane, the tumor was resected, and the hydrogel was placed in the site of the resultant cavity at the time of surgery. The wound was closed with medical clips. Control experiments were performed in which therapy was administered in solution at the site of surgery, intraperitoneally, or intravenously. For tumor re-challenge experiments, 10^4 4T1-Luc2 cells were inoculated in the contralateral fourth mammary fat pad. The surgeries were performed independently at least three times, and the surgeon was often blinded.
After surgery, mice were inspected weekly for tumor recurrence and distal metastasis by bioluminescence imaging (BLI). To this end, 10 min after intraperitoneal injection of D-luciferin (150 mg/kg), a substrate of Luc2, the mice were anesthetized with 2% isoflurane and imaged using an IVIS Spectrum In Vivo Imaging System (Perkin Elmer).
A series of compositions described above in Table 2 were evaluated in viva. In each group of evaluations, seven-week-old female Balb/c mice were inoculated orthotopically with 100,000 4T1-Luc2 syngeneic breast cancer cells (into the fourth mammary fat pad). After 10 days, mice were anesthetized, tumors were surgically resected, and the composition was placed in the resection site. Tumor relapse and metastasis were monitored via imaging over the course of 6 weeks.
Female BALB/cJ mice were inoculated orthotopically with 4T1-Luc2 breast cancer cells in their fourth mammary fat pad. Nine days later, the mice were imaged by bioluminescent IVIS imaging to confirm that the size of the tumors was consistent across animals to enable randomization into groups. On day 10 post-tumor inoculation, tumors (˜100 mm^3) were resected, and device 1 was placed in the tumor resection site. Controls included no treatment (sham), empty hydrogel (device 8/hydrogel 4), or delivery of the triple combination in solution (S+I+P)—via intraperitoneal injection, intravenous injection, or local administration.

A short description of data set [3]: In vivo release study (fluorescence IVIS imaging). Details: species or system non-tumor-bearing mice. The following applies: each time point: first 24 hours (2′3′-cGAMP), first week (IL-15sa). An excerpt:
To evaluate the in vivo release profiles of Cy7 carboxylic acid (a model compound for R848), anti-PD-1, IL-15sa, and 2′3′-cGAMP, hydrogels containing the fluorophore or one of the fluorescently labeled payloads were surgically implanted into non-tumor-bearing mice.
The loading and release properties of the hydrogel were examined in additional experiments. […] It was then confirmed that the hydrogel extends the release of the small molecules and biologics in vivo. Cy7 carboxylic acid (Cy7-CA) was used as a model small molecule payload, as its physical properties are very similar to those of resiquimod (R848). Cy7-CA was administered to non-tumor-bearing mice, either in solution or loaded in a scaffold placed by the fourth mammary fat pad. The mice were assessed by fluorescence IVIS imaging (FIG. 37B), and the data were quantified (FIG. 37C). Whereas a loss of ˜60% of the signal was detected within two hours of administration of the fluorophore in solution, this amount of signal decay required 24 hours for the fluorophore loaded in the hydrogel. Over this time course, there was a […] for the latter group, on average.
To confirm that the hydrogel sustains the release of the small molecule and biologics in vivo, fluorescently labeled versions of 2 ? […]

For the substance 2′3′-cGAMP, the “in vitro release kinetics (time scale)” value in data set [1] is “hours for the small molecule”. Further, the “survival benefit as innate immune activator component” value in data set [2] is listed as “conferred greater survival benefit than the Toll-like receptor (TLR) 7/8 agonist R848”. Further, the “percentage remaining locally, hydrogel relative to free compound” value in data set [3] is listed as “nearly twice”.
